# Results reported in publication PMC3948684, “Approaches to Improve the Oral Bioavailability and Effects of Novel Anticancer Drugs Berberine and Betulinic Acid” (PLoS ONE, 2014).
# What was measured:
# [1] = test system: A549 orthotopic lung tumors; assay: A549 orthotopic lung cancer model; assay type: in vivo, athymic Nu/nu mice; details: 100 mg/kg orally daily for 3 weeks
# Procedure: A549 cells were grown in F12K Medium containing 10% FBS and standard antibiotic mix at 5% CO2 and 37°C. For orthotopic lung tumor model, mice were anesthetized with Isoflurane and a 5 mm skin incision was made to the left chest, 5 mm below the scapula. Hamilton syringes (1 ml) with 28-gauge hypodermic needles were used to inject the cell inoculums through the sixth intercostal space into the left lung. The needle was quickly advanced to a depth of 3 mm and quickly removed after the injection of the A549 cells (2 million/mouse) suspended in 100 µL PBS (pH 7.4) into the lung parenchyma. For metastatic lung tumor models H1650 cells (2 million in 100 µL PBS) were intravenously administered to mice via tail vein. […] Only cell suspensions of >95% viability as determined by tryphan blue exclusion were used. Wounds from the incisions were closed with surgical skin clips. […] Drug treatment was started 2 weeks after the tumor cell implantation. BBR free drug or SD formulation was given orally at the dose of 100 mg/kg daily for 3 weeks. […] Body weights were monitored throughout the study. Animal survival rates were recorded during the study. The lung weights and tumor volumes were used for assessment of therapeutic activity of the treatments. After sacrificing the animals lung weights and tumor nodules were recorded in metastatic tumor models.
# [2] = Toxicity on chronic administration (body weights, H&E histopathology); details: 100 mg/kg for 3 weeks
# Procedure: A549 cells were grown in F12K Medium containing 10% FBS and standard antibiotic mix at 5% CO2 and 37°C. For orthotopic lung tumor model, mice were anesthetized with Isoflurane and a 5 mm skin incision was made to the left chest, 5 mm below the scapula. Hamilton syringes (1 ml) with 28-gauge hypodermic needles were used to inject the cell inoculums through the sixth intercostal space into the left lung. The needle was quickly advanced to a depth of 3 mm and quickly removed after the injection of the A549 cells (2 million/mouse) suspended in 100 µL PBS (pH 7.4) into the lung parenchyma. For metastatic lung tumor models H1650 cells (2 million in 100 µL PBS) were intravenously administered to mice via tail vein. […] Wounds from the incisions were closed with surgical skin clips. […] Drug treatment was started 2 weeks after the tumor cell implantation. BBR free drug or SD formulation was given orally at the dose of 100 mg/kg daily for 3 weeks. […] Body weights were monitored throughout the study. Animal survival rates were recorded during the study. The lung weights and tumor volumes were used for assessment of therapeutic activity of the treatments. After sacrificing the animals lung weights and tumor nodules were recorded in metastatic tumor models.
# Orthotopic lung tumors and mice small intestine segments (ileum) were processed for normal histopathological procedures and 5–10 µm sections were made. After deparaffinization and rehydration, sections were stained with Hematoxylin and Eosin for normal histological evaluation. Similarly, small intestine segments were processed and stained with H&E and visualized under normal microscope.
# [3] = parameters: method as in PMID 16956957, PMID 20634337; details: oral ref 21, 22; cited from earlier work
# [4] = test system: TUNEL positive apoptotic cells; assay: TUNEL assay on orthotopic lung tumor sections; assay type: in vivo, athymic Nu/nu mice
# Procedure: Terminal deoxynucleotidyl transferase-mediated dUTP nick end labeling (TUNEL) assay was used to study the DNA fragmentation or apoptosis detection. TUNEL assay was performed on 4–5 µm thick sections as per the kit manual. Formalin-fixed tumor tissues were embedded in paraffin and sectioned ([…]). DeadEndTM Colorimetric Apoptosis Detection System (Promega, Madison, WI) allows the recognition of apoptotic nuclei in paraffin-embedded tissue sections fixed on slides according to the manufacturer's protocol. Briefly, the equilibration buffer was added to slides and incubated for 10 minutes followed by 10-minute incubation in […] proteinase K solution. The sections were washed in PBS and incubated with TdT enzyme at 37°C for 1 h in a humidified chamber for incorporation of biotinylated nucleotides at the 3-OH ends of DNA. The slides were incubated in horseradish peroxidase-labeled streptavidin to bind the biotinylated nucleotides followed by detection with stable chromagen DAB. The images on the slides were visualized with an Olympus BX40 light microscope equipped with a computer-controlled digital camera (DP71, Olympus Center Valley, PA, USA). Three slides per group were stained and apoptotic cells were identified by dark brown […] staining.
# [5] = In vitro drug release of BBR (USP type II paddle); assay type: physicochemical; details: after 5 h; PBS pH 5.8 with 1% volpo, 37°C
# Procedure: In vitro drug release study was conducted in PBS (pH 5.8) containing 1% volpo. Briefly, 50 mg of free drug or equivalent amount of SD form of BBR and BA were dispersed in 500 ml of release medium and the drug release profile was studied at pH 5.8. Release studies were performed according to the USP type II paddle method, at 37±0.5°C while stirring constantly at 50 rpm. Samples were withdrawn at different time points, centrifuged and drug content in the samples was analyzed by spectrometric method of analysis. The withdrawn samples were replaced by equal volumes of fresh medium maintained at the same temperature. Except replacing the 1% Volpo with 2.5% SLS, similar conditions were maintained for the in vitro drug release studies of BA in free drug and SD forms. The released BA concentrations were measured by established HPLC method.
# H1650 cells = assay: In vitro cytotoxicity, crystal violet staining; assay type: cell-based; details: Homo sapiens, NCI-H1650; BBR, 72 h exposure
# Procedure: (§1) NSCLC cells A549 and H1650 were plated in 96 well plates at 10,000 cells/well density. After 24 h, cells were treated with various concentrations of BBR and BA. DMSO (0.1%) treated cells were considered as control cells. After 72 h treatment, cells were fixed in 0.25% gultaraldehyde and stained with 0.05% crystal violet staining. Percent of cell viability or cell kill was calculated by considering DMSO treated control cells as 100% viable (zero % cell kill).
# A549 cells = assay: In vitro cytotoxicity, crystal violet staining; assay type: cell-based; details: Homo sapiens, BBR, 72 h exposure
# Procedure: as §1
# H1650 colonies = assay: Clonogenic assay (colony formation); assay type: cell-based, Human; details: BBR at 1, 3 and 10 µM
# Source text: Supplementary file pone.0089919.s002.tif: Figure S2 Effect of BBR on colony formation. A) Effects of BBR free drug and BBR-SD on spheroid number B) on spheroid sizes. Representative clonogenic images of H1650 colonies form C) control and D) BBR free drug and BBR-SD treated groups. Colonies were stained with crystal violet staining for better visibility. Each data point is represented as mean±sem (n = 6–10). **p<0.01 and ***p<0.001 Vs respective untreated control groups. (TIF) Click here for additional data file.
compound,measurement,setting,value
"COc1ccc2cc3[n+](cc2c1OC)CCc1cc2c(cc1-3)OCO2.[Cl-] [BBR free drug, 5,6-dihydro-9,10-dimethoxy-benzo[g]-1,3-benzodioxolo[5,6-a]quinolizinium, chloride]",decrease in tumor volumes compared to untreated control,[1],1.31 fold
same,lung tumor weights,[1],385.77 ± 63.42 mg
same,reduced tumor weights compared to control tumors,[1],1.40 fold
same,H&E histopathology of small intestine (ileum),[2],No visible toxicity
same,body weight changes during treatment,[2],no significant change
same,signs of toxicity on chronic administration,[2],did not result in any toxicity
same,bioavailability,[3],less than 1%
same,increase in TUNEL positive apoptotic cells compared to control tumors,[4],2.74 fold
same,percent of BBR released,[5],Approximately 100%
same,IC50,H1650 cells,8.39 ± 1.03 µM
same,IC50,A549 cells,6.45 ± 0.46 µM
same,number of colonies and colony sizes,H1650 colonies,significantly decreased
